Assay results reported in PubChem BioAssay (NCI).
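GI50: concentration for 50% inhibition of growth. Definition used: TGI = concentration required for complete inhibition of growth.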

Key:
Experiment in all cases: inhibition of tumour cell growth, NCI panel, 384-well format
OVCAR-5 ovarian = tested on: OVCAR-5 ovarian
SNB-19 CNS = tested on: SNB-19 CNS
MDA-MB-231 breast = tested on: MDA-MB-231 breast
HCT-15 colon = tested on: HCT-15 colon
NCI-H460 NSCLC = tested on: NCI-H460 NSCLC
ACHN renal = tested on: ACHN renal
HS 578T breast = tested on: HS 578T breast
SK-MEL-2 melanoma = tested on: SK-MEL-2 melanoma
CCRF-CEM leukemia = tested on: CCRF-CEM leukemia
MOLT-4 leukemia = tested on: MOLT-4 leukemia
OVCAR-8 ovarian = tested on: OVCAR-8 ovarian
SF-295 CNS = tested on: SF-295 CNS
IGROV1 ovarian = tested on: IGROV1 ovarian
SR leukemia = tested on: SR leukemia
SN12C renal = tested on: SN12C renal
MALME-3M melanoma = tested on: MALME-3M melanoma
SF-268 CNS = tested on: SF-268 CNS
SNB-75 CNS = tested on: SNB-75 CNS
OVCAR-4 ovarian = tested on: OVCAR-4 ovarian
UACC-62 melanoma = tested on: UACC-62 melanoma
HT29 colon = tested on: HT29 colon
MDA-MB-435 melanoma = tested on: MDA-MB-435 melanoma
HOP-92 NSCLC = tested on: HOP-92 NSCLC
MCF7 breast = tested on: MCF7 breast
SK-MEL-5 melanoma = tested on: SK-MEL-5 melanoma
NCI-H522 lung = tested on: NCI-H522 lung
HOP-62 NSCLC = tested on: HOP-62 NSCLC
SF-539 CNS = tested on: SF-539 CNS
NCI-H226 lung = tested on: NCI-H226 lung
786-0 renal = tested on: 786-0 renal
MDA-MB-468 breast = tested on: MDA-MB-468 breast
U251 glioblastoma = tested on: U251 glioblastoma
KM12 colon = tested on: KM12 colon
UACC-257 melanoma = tested on: UACC-257 melanoma
NCI-H322M lung = tested on: NCI-H322M lung
T-47D breast = tested on: T-47D breast
PC-3 prostate = tested on: PC-3 prostate
EKVX NSCLC = tested on: EKVX NSCLC
A549 NSCLC = tested on: A549 NSCLC
RPMI-8226 leukemia = tested on: RPMI-8226 leukemia
M14 melanoma = tested on: M14 melanoma
SK-OV-3 ovarian = tested on: SK-OV-3 ovarian
RXF 393 renal = tested on: RXF 393 renal
BT-549 breast = tested on: BT-549 breast
DU-145 prostate = tested on: DU-145 prostate
NCI/ADR-RES ovarian = tested on: NCI/ADR-RES ovarian
SK-MEL-28 melanoma = tested on: SK-MEL-28 melanoma
TK-10 renal = tested on: TK-10 renal
OVCAR-3 ovarian = tested on: OVCAR-3 ovarian
CAKI-1 renal = tested on: CAKI-1 renal
NCI-H23 lung = tested on: NCI-H23 lung
COLO 205 colon = tested on: COLO 205 colon
SW-620 colon = tested on: SW-620 colon
HL-60(TB) leukemia = tested on: HL-60(TB) leukemia

`NC(=S)N/N=C/c1ncccc1N` was tested, and the GI50 (OVCAR-5 ovarian) was 2690 nM, the TGI (OVCAR-5 ovarian) was 8730 nM and the GI50 (SNB-19 CNS) was 709 nM. For the same molecule, the TGI (SNB-19 CNS) was 4140 nM, the GI50 (MDA-MB-231 breast) was 616 nM and the TGI (MDA-MB-231 breast) was 11900 nM. For the same molecule, the GI50 (HCT-15 colon) was 3470 nM, the TGI (HCT-15 colon) was > 100000 nM and the GI50 (NCI-H460 NSCLC) was 413 nM. It also gave a TGI (NCI-H460 NSCLC) of 1570 nM, a GI50 (ACHN renal) of 281 nM and a TGI (ACHN renal) of 585 nM. The GI50 (HS 578T breast) was 654 nM, the TGI (HS 578T breast) was > 100000 nM and the GI50 (SK-MEL-2 melanoma) was 450 nM. For the same molecule, the TGI (SK-MEL-2 melanoma) was 772 nM, the GI50 (CCRF-CEM leukemia) was 291 nM and the TGI (CCRF-CEM leukemia) was 622 nM. It also gave a GI50 (MOLT-4 leukemia) of 194 nM, a TGI (MOLT-4 leukemia) of 342 nM and a GI50 (OVCAR-8 ovarian) of 241 nM. It also gave a TGI (OVCAR-8 ovarian) of 499 nM, a GI50 (SF-295 CNS) of 1100 nM and a TGI (SF-295 CNS) of 3860 nM. For the same molecule, the GI50 (IGROV1 ovarian) was 816 nM, the TGI (IGROV1 ovarian) was 20500 nM and the GI50 (SR leukemia) was 192 nM. The TGI (SR leukemia) was 337 nM, the GI50 (SN12C renal) was 730 nM and the TGI (SN12C renal) was 3140 nM. The GI50 (MALME-3M melanoma) was 378 nM, the TGI (MALME-3M melanoma) was 933 nM and the GI50 (SF-268 CNS) was 318 nM. For the same molecule, the TGI (SF-268 CNS) was 789 nM, the GI50 (SNB-75 CNS) was 344 nM and the TGI (SNB-75 CNS) was 2900 nM. For the same molecule, the GI50 (OVCAR-4 ovarian) was 4390 nM, the TGI (OVCAR-4 ovarian) was 9350 nM and the GI50 (UACC-62 melanoma) was 249 nM. The TGI (UACC-62 melanoma) was 581 nM, the GI50 (HT29 colon) was 2210 nM and the TGI (HT29 colon) was 43400 nM. For the same molecule, the GI50 (MDA-MB-435 melanoma) was 7800 nM, the TGI (MDA-MB-435 melanoma) was > 100000 nM and the GI50 (HOP-92 NSCLC) was 470 nM. The TGI (HOP-92 NSCLC) was 21800 nM, the GI50 (MCF7 breast) was 487 nM and the TGI (MCF7 breast) was 10800 nM. It also gave a GI50 (SK-MEL-5 melanoma) of 530 nM, a TGI (SK-MEL-5 melanoma) of 1960 nM and a GI50 (NCI-H522 lung) of 561 nM. For the same molecule, the TGI (NCI-H522 lung) was 7760 nM, the GI50 (HOP-62 NSCLC) was 357 nM and the TGI (HOP-62 NSCLC) was 1410 nM. The GI50 (SF-539 CNS) was 212 nM, the TGI (SF-539 CNS) was 451 nM and the GI50 (NCI-H226 lung) was 1700 nM. For the same molecule, the TGI (NCI-H226 lung) was 3450 nM, the GI50 (786-0 renal) was 242 nM and the TGI (786-0 renal) was 540 nM. It also gave a GI50 (MDA-MB-468 breast) of 1410 nM, a TGI (MDA-MB-468 breast) of 3560 nM and a GI50 (U251 glioblastoma) of 314 nM. The TGI (U251 glioblastoma) was 855 nM, the GI50 (KM12 colon) was 3520 nM and the TGI (KM12 colon) was 24800 nM. For the same molecule, the GI50 (UACC-257 melanoma) was 3170 nM, the TGI (UACC-257 melanoma) was 15000 nM and the GI50 (NCI-H322M lung) was 7280 nM. The TGI (NCI-H322M lung) was > 100000 nM, the GI50 (T-47D breast) was 1330 nM and the TGI (T-47D breast) was 7190 nM. The GI50 (PC-3 prostate) was 10600 nM, the TGI (PC-3 prostate) was 28200 nM and the GI50 (EKVX NSCLC) was 3280 nM. The TGI (EKVX NSCLC) was 18300 nM, the GI50 (A549 NSCLC) was 1450 nM and the TGI (A549 NSCLC) was > 100000 nM. For the same molecule, the GI50 (RPMI-8226 leukemia) was 203 nM, the TGI (RPMI-8226 leukemia) was 373 nM and the GI50 (M14 melanoma) was 586 nM. The TGI (M14 melanoma) was 1870 nM, the GI50 (SK-OV-3 ovarian) was 2670 nM and the TGI (SK-OV-3 ovarian) was 7610 nM. For the same molecule, the GI50 (RXF 393 renal) was 2080 nM, the TGI (RXF 393 renal) was 23600 nM and the GI50 (BT-549 breast) was 675 nM. For the same molecule, the TGI (BT-549 breast) was 3940 nM, the GI50 (DU-145 prostate) was 584 nM and the TGI (DU-145 prostate) was 3630 nM. It also gave a GI50 (NCI/ADR-RES ovarian) of 1440 nM, a TGI (NCI/ADR-RES ovarian) of 3040 nM and a GI50 (SK-MEL-28 melanoma) of 2670 nM. For the same molecule, the TGI (SK-MEL-28 melanoma) was 41600 nM, the GI50 (TK-10 renal) was 8170 nM and the TGI (TK-10 renal) was > 100000 nM. The GI50 (OVCAR-3 ovarian) was 532 nM, the TGI (OVCAR-3 ovarian) was 8640 nM and the GI50 (CAKI-1 renal) was 494 nM. It also gave a TGI (CAKI-1 renal) of 15800 nM, a GI50 (NCI-H23 lung) of 257 nM and a TGI (NCI-H23 lung) of 518 nM. For the same molecule, the GI50 (COLO 205 colon) was 879 nM, the TGI (COLO 205 colon) was 2230 nM and the GI50 (SW-620 colon) was 697 nM. For the same molecule, the TGI (SW-620 colon) was 21400 nM, the GI50 (HL-60(TB) leukemia) was 233 nM and the TGI (HL-60(TB) leukemia) was 428 nM.
